Patent US5262431A, “Prolinal derivatives and pharmaceutical compositions thereof” (Ono Pharmaceutical Co., Ltd., priority 1986, dated 1993)
Peptide text beside a SMILES is read from it. * marks the point of attachment. Cbz = O=C(OCc1ccccc1)*; CH2Cl = ClC*

Molecular target: T1, prolyl endopeptidase (Bos taurus, UniProt Q9XTA2)
T1 construct: prolyl endopeptidase which was purified from bovine brain; from tissue; host or cells: bovine brain
T1 sequence (Q9XTA2 1-710): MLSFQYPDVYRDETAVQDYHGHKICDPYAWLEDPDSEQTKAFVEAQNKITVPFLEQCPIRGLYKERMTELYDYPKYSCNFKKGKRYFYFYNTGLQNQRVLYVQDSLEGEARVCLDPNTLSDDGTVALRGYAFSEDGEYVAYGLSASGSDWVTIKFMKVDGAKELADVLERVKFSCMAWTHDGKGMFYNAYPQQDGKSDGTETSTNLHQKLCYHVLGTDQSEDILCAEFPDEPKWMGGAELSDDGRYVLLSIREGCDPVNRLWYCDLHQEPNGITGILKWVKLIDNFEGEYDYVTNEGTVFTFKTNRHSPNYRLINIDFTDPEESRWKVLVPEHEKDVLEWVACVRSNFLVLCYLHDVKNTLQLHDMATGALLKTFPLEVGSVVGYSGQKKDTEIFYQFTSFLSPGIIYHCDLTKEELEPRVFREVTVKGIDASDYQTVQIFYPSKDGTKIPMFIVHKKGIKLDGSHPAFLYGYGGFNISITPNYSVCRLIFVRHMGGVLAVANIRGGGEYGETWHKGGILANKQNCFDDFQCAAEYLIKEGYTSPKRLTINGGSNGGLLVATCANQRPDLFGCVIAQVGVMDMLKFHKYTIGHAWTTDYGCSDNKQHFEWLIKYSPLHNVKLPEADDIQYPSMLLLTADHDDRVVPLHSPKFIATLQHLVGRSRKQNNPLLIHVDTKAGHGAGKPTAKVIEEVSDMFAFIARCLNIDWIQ
Experiment: Prolyl endopeptidase inhibitory activity in vitro
Assay type: biochemical, bovine
Conditions: not given
Method: Prolyl Endopeptidase Inhibitory Activity In Vitro
Inhibitory activity of prolyl endopeptidase in vitro was measured by the following test system.
A mixed solution of 20 mM tris-HCl buffer (pH 7.5; 935 μl; containing 10 mM EDTA and 10 mM mercaptoethanol), a solution of a compound of the present invention In DMSO (10 μl) and a solution of prolyl endopeptidase which was purified from bovine brain (0.13 unit; prepared by the method described in J. Biochem., 94, 1179 (1983)) in tris-HCl buffer (15 μl) was preincubated for 15 mins at 37° C.
To the solution, 5 mM of N-benzyloxycarbonyl-glycyl-prolyl-p-nitroanilide (40 μl) in a mixture of 40% dioxane-60% water was added. The solution was incubated for 1 min at the same temperature.
Optical absorption (a1) at 405 nm of the solution, and optical absorption (a2) at 405 nm of the solution after more 30 mins' incubation at 37° C. were measured.
Optical absorptions (b1 and b2) of the solutions using DMSO instead of the solution of the compound of the present invention were also measured.
Inhibitory ratio was calculated by the following expression and IC50 (required concentration for 50% inhibition) was obtained (See Protein, Nucleic acid and Enzyme 25(6), 513, 1980.). [formula]
Work on `COc1ccc(CCCCCC(C(=O)N2CCC[C@H]2C=O)C(C)C)cc1` (some centres unmarked) yielded an IC50 of 170 nM.
For `O=C[C@@H]1CCCN1C(=O)[C@@H]1CCC[C@H]1CCCCc1ccccc1` (relative stereo) [Example 2, N-[DL-Trans-2-(4-Phenylbutyl)Cyclopentanecarbonyl] -L-prolinal], the IC50 was 130 nM.
Work on `CC(C)C(CCCc1ccccc1)C(=O)N1CCC[C@H]1C=O` (stereo partly drawn) [1(a), N-(2-isopropyl-5-phenyl-pentanoyl)-L-prolinal] yielded an IC50 of 370 nM.
With `CC(C)C(CCCCCc1ccccc1)C(=O)N1CCC[C@H]1C=O` (stereo partly drawn) [1(b), N-(2-isopropyl-7-phenyl-heptanoyl)-L-prolinal] the IC50 was 80 nM.
In the case of `CC(C)C(CCCCCCc1ccccc1)C(=O)N1CCC[C@H]1C=O` (stereo partly drawn) [1(c), N-(2-isopropyl-8-phenyl-octanoyl)-L-prolinal], the IC50 is reported as 190 nM.
Work on `CC(C)C(CCCCCCCc1ccccc1)C(=O)N1CCC[C@H]1C=O` (stereo partly drawn) [1(d), N-(2-isopropyl-9-phenyl-nonanoyl)-L-prolinal] yielded an IC50 of 230 nM.
Compound `CC(C)C(CCCCCCCCc1ccccc1)C(=O)N1CCC[C@H]1C=O` (stereo partly drawn) [1(e), N-(2-isopropyl-10-phenyldecanoyl)-L-prolinal] has an IC50 of 120 nM.
Compound `CC(C)C(CCCCc1ccccc1)C(=O)N1CCC[C@H]1C=O` (stereo partly drawn) [Example 1, N-(2-Isopropyl-6-Phenylhexanoyl)-L-Prolinal] has an IC50 of 280 nM.
Work on `CC(C)C(CCc1ccccc1)C(=O)N1CCC[C@H]1C=O` (stereo partly drawn) [N-(2-isopropyl-4-phenyl-butyryl)-L-prolinal, reference compound] yielded an IC50 greater than 5000 nM.
Work on `COc1ccc(CCCC(=O)N2CCC[C@H]2C=O)cc1` [N-[4-(4-methoxyphenyl)bu-tyryl]-L-prolinal, reference compound] yielded an IC50 of 21000 nM.

Same assay, conditions: Table I, formula (Ia); purified from bovine brain; pH 7.5, 37° C.; read-out: Concentration for 50% inhibition IC50
“N-[9-(4-phenylbutyl)cyclo-hexane carbonyl]-L-prolinal [2(a)]” gave an IC50 of 430 nM.

Same assay, conditions: read-out: Concentration for 50% inhibition IC50; Table II, formula (Ib); purified from bovine brain; pH 7.5, 37° C.
Compound `O=C[C@@H]1CCCN1C(=O)C(CCCCCc1ccccc1)c1ccccc1` (some centres unmarked) has an IC50 of 610 nM.
With `O=C[C@@H]1CCCN1C(=O)C(CCCCc1ccccc1)C1CCCCC1` (some centres unmarked) the IC50 was 690 nM.

System: prolyl endopeptidase
Experiment: not given
Conditions: literature; cited from earlier work
In the case of `O=C(NCC(=O)N1CCC[C@H]1C(=O)CCl)OCc1ccccc1` [N-benzyloxycarbonyl-glycyl-L-prolyl-chloromethane] (Cbz-Gly-Pro-CH2Cl), the “inhibition of prolyl endopeptidase (in words)” value is given as “strongly inhibit prolyl endopeptidase”.
